In one assay the target is α1β2γ2 GABAA receptor (Homo sapiens (Human), UniProt P14867+P47870). To be noted: for Emax at 10 µM: read-out: GABA (α1β2γ2) Qpatch in Ltk, % efficacy at 10 μM, Qpatch, Ltk cells, 10 μM compound, 2 μM GABA; for GABA (α1β2γ2) Qpatch in Ltk, % efficacy at 10 μM: Ltk cells, 10 μM compound, 2 μM GABA.
The next assay deals with α4β3δ GABAA receptor (Homo sapiens (Human), UniProt P28472+P48169). Kind of assay: Patch clamp electrophysiology of recombinant α4β3δ GABAA receptors (CHO cells). To be noted: read-out: GABA (α4β3δ) Qpatch in CHO, % efficacy at 10 μM.
The target of assay [1] is [35S]-TBPS binding, rat brain cortical membranes. Kind of assay: Steroid inhibition of [35S]-TBPS binding. To be noted: 3 nM [35S]-TBPS, in the presence of 5 μM GABA. As for the experimental part:
Steroid Inhibition of TBPS Binding
[35S]-t-Butylbicylophorothionate (TBPS) binding assays using rat brain cortical membranes in the presence of 5 μM GABA has been described (Gee et al, J. Pharmacol. Exp. Ther. 1987, 241, 346-353; Hawkinson et al, Mol. Pharmacol. 1994, 46, 977-985; Lewin, A. H et al., Mol. Pharmacol. 1989, 35, 189-194).
Briefly, cortices are rapidly removed following decapitation of carbon dioxide-anesthetized Sprague-Dawley rats (200-250 g). The cortices are homogenized in 10 volumes of ice-cold 0.32 M sucrose using a glass/teflon homogenizer and centrifuged at 1500×g for 10 min at 4° C. The resultant supernatants are centrifuged at 10,000×g for 20 min at 4° C. to obtain the P2 pellets. The P2 pellets are resuspended in 200 mM NaCl/50 mM Na—K phosphate pH 7.4 buffer and centrifuged at 10,000×g for 10 min at 4° C. This washing procedure is repeated twice and the pellets are resuspended in 10 volumes of buffer. Aliquots (100 μL) of the membrane suspensions are incubated with 3 nM [^35S]-TBPS and 5 μL aliquots of test drug dissolved in dimethyl sulfoxide (DMSO) (final 0.5%) in the presence of 5 μM GABA. The incubation is brought to a final volume of 1.0 mL with buffer. Nonspecific binding is determined in the presence of 2 μM unlabeled TBPS and ranged from 15 to 25%. Following a 90 min incubation at room temp, the assays are terminated by filtration through glass fiber filters (Schleicher and Schuell No. 32) using a cell harvester (Brandel) and rinsed three times with ice-cold buffer. Filter bound radioactivity is measured by liquid scintillation spectrometry. Non-linear curve fitting of the overall data for each drug averaged for each concentration is done using Prism (GraphPad).
Various compounds are or can be screened to determine their potential as modulators of [^355]-TBPS binding in vitro. These assays are or can be performed in accordance with the above discussed procedures.

The values below come from US11912737B2, “19-nor neuroactive steroids and methods of use thereof” (Sage Therapeutics, Inc., priority 2013, dated 2024).

Experimental for α1β2γ2 GABAA receptor: (§1) LTK cells are stably transfected with the α1β2γ2 subunits of the GABA receptor and CHO cells are transiently transfected with the α4β3δ subunits via the Lipofecatamine method. Cells were passaged at a confluence of about 50-80% and then seeded onto 35 mm sterile culture dishes containing 2 ml culture complete medium without antibiotics or antimycotics.
(§2) Whole cell currents were measured with HEKA EPC-10 amplifiers using PatchMaster software or by using the high throughput QPatch platform (Sophion). […] In some cases 0.005% cremophor was also added. Intracellular (pipette) solution contained: KCl 130 mM, MgCl2 1 mM, Mg-ATP 5 mM, HEPES 10 mM, EGTA 5 mM, pH 7.2. During experiments, cells and solutions were maintained at room temperature (19° C.-30° C.). For manual patch clamp recordings, cell culture dishes were placed on the dish holder of the microscope and continuously perfused (1 ml/min) with bath solution. After formation of a Gigaohm seal between the patch electrodes and the cell (pipette resistance range: 2.5 MΩ-6.0 MΩ; seal resistance range: >1 GΩ) the cell membrane across the pipette tip was ruptured to assure electrical access to the cell interior (whole-cell patch-configuration). For experiments using the QPatch system, cells were transferred as suspension to the QPatch system in the bath solution and automated whole cell recordings were performed.
(§3) Cells were voltage clamped at a holding potential of −80 mV. For the analysis of test articles, GABA receptors were stimulated by 2 μM GABA after sequential pre-incubation of increasing concentrations of the test article. Pre-incubation duration was 30 s and the duration of the GABA stimulus was 2 s. Test articles were dissolved in DMSO to form stock solutions (10 mM). Test articles were diluted to 0.01, 0.1, 1, and 10 μM in bath solution. All concentrations of test articles were tested on each cell. The relative percentage potentiation was defined as the peak amplitude in response to GABA EC20 in the presence of the test article divided by the peak amplitude in response to GABA EC20 alone, multiplied by 100.
Experimental for α4β3δ GABAA receptor: as §1, §2, §3

With `C[C@H]1C[C@H]2[C@@H](CC[C@@H]3[C@@H]2CC[C@]2(C)[C@@H](C(=O)CN4CCOCC4)CC[C@@H]32)C[C@]1(C)O` [Entry 45], the Emax at 10 µM at α1β2γ2 GABAA receptor (LTK) is 10 to 100%; at α4β3δ GABAA receptor it was greater than 500%.
`CC(=O)N1CCN(CC(=O)[C@H]2CC[C@H]3[C@@H]4CC[C@H]5C[C@](C)(O)[C@@H](C)C[C@@H]5[C@H]4CC[C@]23C)CC1` [Entry 27]: the Emax at 10 µM at α1β2γ2 GABAA receptor (LTK) and on α4β3δ GABAA receptor was 100 to 500% throughout.
As for `COC[C@@]1(O)CC[C@H]2[C@@H](CC[C@@H]3[C@@H]2CC[C@]2(C)[C@@H](C(=O)CN4CCN(S(C)(=O)=O)CC4)CC[C@@H]32)C1` [Entry 29], the “GABA (α1β2γ2) Qpatch in Ltk, % efficacy at 10 μM” value on α1β2γ2 GABAA receptor was “B (“B” ≥100-500)”.
As to `C[C@@H]1COCCN1CC(=O)[C@H]1CC[C@H]2[C@@H]3CC[C@@H]4C[C@](C)(O)CC[C@@H]4[C@H]3CC[C@]12C` [Entry 3], the EC50 at α1β2γ2 GABAA receptor was greater than 2 µM. In addition, the Emax on α1β2γ2 GABAA receptor (LTK, read-out: GABAa alpha1 (α1β2γ2) Emax (%), potentiation of GABA EC20 (2 μM) current) is 0 to 500%.
For the molecule `CNC(=O)N1CCN(CC(=O)[C@H]2CC[C@H]3[C@@H]4CC[C@@H]5C[C@](C)(O)CC[C@@H]5[C@H]4CC[C@]23C)CC1` [Entry 9], the Emax at 10 µM at α1β2γ2 GABAA receptor (LTK) lay within 100 to 500%.
On to `C[C@@]1(O)CC[C@H]2[C@H](CC[C@@H]3[C@@H]2CC[C@]2(C)[C@@H](C(=O)CN4CCN(S(C)(=O)=O)CC4)CC[C@@H]32)C1` [Entry 8], for which the Emax at 10 µM at α1β2γ2 GABAA receptor (LTK) and at α4β3δ GABAA receptor was greater than 500% throughout.
`C[C@@]1(O)CC[C@H]2[C@H](CC[C@@H]3[C@@H]2CC[C@]2(C)[C@@H](C(=O)CN4CCC(O)C4)CC[C@@H]32)C1` (stereo partly drawn) [Entry 4]: the IC50 in assay [1] was 0.1 to 0.5 µM. The Emax at 10 µM at α1β2γ2 GABAA receptor (LTK) was in the range of 100 to 500%.
As for `C[C@]12CC[C@H]3[C@@H](CC[C@@H]4C[C@@](O)(C(F)F)CC[C@@H]43)[C@@H]1CC[C@@H]2C(=O)CN1CCN(S(C)(=O)=O)CC1` [Entry 56], the Emax at 10 µM on α1β2γ2 GABAA receptor (LTK) was in the range of 100 to 500%.
The same measure, in the same setting: as for `COC[C@@]1(O)CC[C@H]2[C@H](CC[C@@H]3[C@@H]2CC[C@]2(C)[C@@H](C(=O)CN4CCN(S(C)(=O)=O)CC4)CC[C@@H]32)C1` [Entry 30], the figure is greater than 500%.
Take `COC[C@@]1(O)CC[C@H]2[C@@H](CC[C@@H]3[C@@H]2CC[C@]2(C)[C@@H](C(=O)CN4CCN(S(C)(=O)=O)CC4)CC[C@@H]32)C1` [Entry 57]: the “GABA (α1β2γ2) Qpatch in Ltk, % efficacy at 10 μM” value on α1β2γ2 GABAA receptor is “C (“C” ≥500)”.
